Test results reported in patent US6436960B1, “Farnesyl transferase inhibitors having a piperidine structure and process for preparation thereof” (LG Chemical Ltd., priority 1998, dated 2002).

Experiments:
Ras farnesyl transferase [1] = molecular target: T1, Ras farnesyl transferase (Rattus norvegicus, UniProt Q02293+Q04631); assay: in vivo (cellular) Ras farnesyl transferase inhibitory activity, Rat2 cells transformed with H-Ras fused with polybasic lysine domain of K-Ras; format: cell-based; conditions: Rat2 cell line transformed with H-Ras substituted with polybasic lysine domain at C-terminus of K-Ras; concentration inhibiting 50% of farnesyl binding; read-out: K-Ras CIC50
T1 construct: endogenous in cells; host or cells: Rat2 fibroblasts transformed with C-Harvey-Ras, or with H-Ras carrying the K-Ras C-terminal polybasic lysine domain
Method: (§1) In the present experiment, Rat2 cell line which expresses C-Harvey-Ras protein having transforming activity and Rat2 cell line(Korean patent application No. 97-14409) which is transformed with fused protein of H-Ras substituted with polybasic lysine domain at C-terminus of K-Ras were used. The experiment was performed by the modified Declue's method(Declue. J. E. et al., Cancer Research, 1991, 51, 712). Hereinafter, the experimental method will be described in more detail.
(§2) 3×10^5 cells of transformed Rat2 fibroblast cell line were sprayed on 60 mm cell cultivation dish and cultivated for 48 hours in a cell incubator at 37° C. and after 50% or more of density was reached, it was treated with the test compounds. The compound according to the present invention dissolved in dimethylsulfoxide(DMSO) was used. 1% concentration of dimethylsulfoxide was used in both control and test groups. After 4 hours from the treatment with the compound, methionine labeled with 150 μCi of radioactive isotope [^35S] per 1 ml of medium was added and after cultivating for 20 hours, the cells were washed with physiological saline water. The cells were lysed using 1 ml of cold cell lysis buffer solution(50 mM of Sodium HEPES buffer solution containing 5 mM of magnesium chloride, 1 mM of DTT, 1% NP 40, 1 mM of EDTA, 1 mM of PMSF, 2 μM of leupeptin, 2 μM of pepstatin A and 2 μM of antipain) and the supernatant wherein the cells were lysed was obtained by high-velocity centrifugation of 12,000 g×5 minutes. The amount of radioisotope in the supernatant was measured and standardized to obtain a quantitative result in immunoprecipitation reaction and then, Y13-259, a monoclonal antiboby specifically binding to Ras protein(Furth, M. E. et al., J. Virol, 1982, 43, 294) was added and reacted for 15 hours at 4° C. Protein A(combined with goat anti-murine imunoglobulin antibody)-agarose suspension was added to the solution and reacted for 1 hour at 4° C. and then, to remove the unspecific binding product, immunoprecipitates were washed with a buffer solution (50 mM Tris chloride buffer solution containing 50 mM of sodium chloride, 0.5% of sodium dioxycholate, 0.5% of NP 40 and 0.1% of SDS). The precipitates were added to a buffer solution for electrophoresis and boiled and then, electrophoresis was performed using 13.5% of SDS polyacrylamide gel. After electrophoresis, the gel was fixed and dried. Then, the gel was exposed to X-ray film, developed and printed. From the result of the experiment, intensities of band of protein combined with or without farnesyl of Ras protein were measured, and the concentration of the test compound inhibiting 50% of farnesyl binding was defined as CIC50, an in vivo Ras farnesyl transferase inhibitory activity.

Ras farnesyl transferase [2] = molecular target: T2, Ras farnesyl transferase (Homo sapiens, UniProt P49354+P49356); assay: in vitro inhibitory activity for Ras farnesyl transferase, H-Ras substrate; format: biochemical; conditions: recombinant Ras farnesyl transferase, H-Ras substrate, tritium-farnesylpyrophosphate, 30 minutes at 37° C.; read-out: H-Ras IC50
T2 construct: made in house
Method: (§3) In the present experiment, Ras farnesyl transferase produced by genetic recombination techniques according to the improved Pompliano's method (Pompliano et al., Biochemistry, 1992, 31, 3800) was used, and Ras substrate(Ras-CVLS) protein described in Korean Patent Appln. No. 97-14409 was used after it has been purified according to the known method(see, Chung et al., Biochimica et Biophysica Acta, 1992, 278, 1129).
(§4) The enzyme reaction was performed in 50 μl of 50 mM Soduam HEPES buffer solution containing 25 mM of potassium chloride, 25 mM of magnesium chloride, 10 mM of DTT and 50 μM of zinc chloride. 1.5 μM of Ras substrate protein, 0.15 μM of tritium-farnesylpyrophosphate and 4.5 nM of farnesyl transferase were used.
(§5) More specifically, in the initial step, farnesyl transferase was added to the above buffer solution, reaction was maintained for 30 minutes at 37° C. and then the reaction was stopped by adding 1 ml of ethanol solution containing 1M HCl. The formed precipitates were adsorbed to GF/B filter using Hopper harvestor(Hopper #FH 225V) for filter-binding, washed with ethanol, and then radioactivity of the dried filter was measured using LKB β counter. Enzyme titer was measured in the unsaturated state of substrate where the concentrations of Ras substrate protein and farnesyl transferase have quantitative relationship. The compound according to the present invention dissolved in dimethyl sulfoxide(DMSO) was added to the reaction solution in an amount of less than 5% of the total reaction solution, and then the enzyme inhibitory activity thereof was measured. The enzyme inhibitory activity was represented by percentage of the amount of farnesyl incorporated into the Ras substrate protein in the presence of the test compound to that in the absence of the test compound. IC50 of the test compound was defined as the concentration at which 50% of the enzyme activity was inhibited.

Ras farnesyl transferase [3] = molecular target: T2, Ras farnesyl transferase; assay: in vitro inhibitory activity for Ras farnesyl transferase, K-Ras substrate; format: biochemical; conditions: recombinant Ras farnesyl transferase, K-Ras substrate; read-out: K-Ras IC50
Method: as §3, with “and Ras substrate(Ras-CVLS) protein described in Korean Patent” left out
as §4, §5

Ras farnesyl transferase [4] = molecular target: T1, Ras farnesyl transferase; assay: in vivo (cellular) Ras farnesyl transferase inhibitory activity, Rat2 cells expressing C-Harvey-Ras; format: cell-based; conditions: Rat2 cell line expressing C-Harvey-Ras; concentration inhibiting 50% of farnesyl binding of Ras protein; read-out: H-Ras CIC50
Method: as §1, §2

Structure (SMILES)	IC50 (Ras farnesyl transferase [1]) [nM]	IC50 (Ras farnesyl transferase [2]) [nM]	IC50 (Ras farnesyl transferase [3]) [nM]	IC50 (Ras farnesyl transferase [4]) [nM]
COCCN(C)C(=O)c1cn(Cc2cncn2CC2CCN(C(=O)Cc3ccc(-c4ccccc4)cc3)CC2)cc1-c1cccc2ccccc12 [Compound 16, 1-{1-[1-(4-Biphenylacetyl)-piperidin-4-ylmethyl]-1H-imidazol-5-ylmethyl}-3-[N-(2-methoxyethyl)-N-methyl]carbamoyl-4-(naphthalen-1-yl)-1H-pyrrole]	1000 to 50000	1 to 10	10 to 1000	10 to 100
COCCN(C)C(=O)c1cn(Cc2cncn2CC2CCN(C(=O)OC)CC2)cc1-c1cccc2ccccc12 [Compound 17, 1-[1-(1-Methoxycarbonyl-piperidin-4-ylmethyl)-1H-imidazol-5-ylmethyl]-3[N-(2-methoxyethyl)-N-methyl]carbamoyl-4-(naphthalen-1-yl)-1H-pyrrole]	10000 to 100000	1 to 10	10 to 1000	10 to 100
CCC(=O)N1CCC(Cn2cncc2Cn2cc(C(=O)N(C)CCOC)c(-c3cccc4ccccc34)c2)CC1 [Compound 18, 3-[N-(2-Methoxyethyl)-N-methyl]carbamoyl-4-(naphthalen-1-yl)-1-[1-(1-propionyl-piperidin-4-ylmethyl)-1H-imidazol-5-ylmethyl]-1H-pyrrole]	1000 to 50000	1	10 to 1000	10 to 100
COCCN(C)C(=O)c1cn(Cc2cncn2CC2CCN(C(=O)OCc3cccc4ccccc34)CC2)cc1-c1cccc2ccccc12 [Compound 19, 3-[N-(2-Methoxyethyl)-N-methyl]carbamoyl-4-(naphthalen-1-yl)-1-{1-[1-(1-naphthalen-1-ylmethyloxycarbonyl)piperidin-4-ylmethyl]-1H-imidazol-5-ylmethyl}-1H-pyrrole]	1000 to 10000	7	20	10
COCCN(C)C(=O)c1cn(Cc2cncn2CC2CCN(C(=O)OCc3ccc4ccccc4c3)CC2)cc1-c1cccc2ccccc12 [Compound 20]	1000 to 10000	6	10	10
COCCN(C)C(=O)c1cn(Cc2cncn2CC2CCN(C(=O)OC/C=C(\C)CCC=C(C)C)CC2)cc1-c1cccc2ccccc12 [Compound 21]	1000 to 10000	10 to 100	50	10 to 100
COCCN(C)C(=O)c1cn(Cc2cncn2CC2CCN(C(=O)OCC=C(C)C)CC2)cc1-c1cccc2ccccc12 [Compound 22]	1000 to 10000	9	20	10 to 100
COCCN(C)C(=O)c1cn(Cc2cncn2CC2CCN(C(=O)OCCC(C)C)CC2)cc1-c1cccc2ccccc12 [Compound 23]	1000 to 10000	8	20	10 to 100
COCCN(C)C(=O)c1cn(Cc2cncn2CC2CCN(C(=O)OCc3ccc(F)cc3)CC2)cc1-c1cccc2ccccc12 [Compound 24]	1000 to 10000	6	15	10 to 100
COCCN(C)C(=O)c1cn(Cc2cncn2CC2CCN(C(=O)OC/C=C/c3ccccc3)CC2)cc1-c1cccc2ccccc12 [Compound 25]	1000 to 10000	6	27	< 100
COCCN(C)C(=O)c1cn(Cc2cncn2CC2CCN(C(=O)OCc3csc(C(C)C)n3)CC2)cc1-c1cccc2ccccc12 [Compound 26]	10000 to 50000	4	10 to 100	10 to 100
COCCN(C)C(=O)c1cn(Cc2cncn2CC2CCN(C(=O)c3ccc4ccccc4c3)CC2)cc1-c1cccc2ccccc12 [Compound 27, 3-[N-(2-Methoxyethyl)-N-methyl]carbamoyl-4-(naphthalen-1-yl)-1-{1-[1-(naphthalen-2-ylcarbonyl)piperidin-4-ylmethyl]-1H-imidazol-5-ylmethyl}-1H-pyrrole]	1000 to 10000	9	15	10 to 100
COCCN(C)C(=O)c1cn(Cc2cncn2CC2CCN(C(=O)/C=C/c3ccccc3)CC2)cc1-c1cccc2ccccc12 [Compound 28]	1000 to 10000	12	8	10 to 100
COCCN(C)C(=O)c1cn(Cc2cncn2CC2CCN(C(=O)c3csc(C(C)C)n3)CC2)cc1-c1cccc2ccccc12 [Compound 29]	10000 to 50000	2.5	10 to 100	10 to 100
COCCN(C)C(=O)c1cn(Cc2cncn2CC2CCN(C(=O)N(C)Cc3ccccc3)CC2)cc1-c1cccc2ccccc12 [Compound 30]	1000 to 10000	2.5	6	10 to 100
COCCN(C)C(=O)c1cn(Cc2cncn2CC2CCN(C(=O)N3CCCc4ccccc43)CC2)cc1-c1cccc2ccccc12 [Compound 31, 3-[N-(2-Methoxyethyl)-N-methyl]carbamoyl-4-(naphthalen-1-yl)-1-{1-[1-(1,2,3,4-tetrahydroquinolin-1-ylcarbonyl)piperidin-4-ylmethyl]-1H-imidazol-5-ylmethyl}-1H-pyrrole]	10000 to 50000	4	20	10 to 100
COCCN(C)C(=O)c1cn(Cc2cncn2CC2CCN(C(=O)N3CCc4ccccc4C3)CC2)cc1-c1cccc2ccccc12 [Compound 32, 3-[N-(2-Methoxyethyl)N-methyl]carbamoyl-4-(naphthalen-1-yl)-1-{1-[1-(1,2,3,4-tetrahydroisoquinolin-2-ylcarbonyl)piperidin-4-ylmethyl]-1H-imidazol-5-ylmethyl}-1H-pyrrole]	1000 to 10000	2	12	10 to 100
COCCN(C)C(=O)c1cn(Cc2cncn2CC2CCN(Cc3ccc(-c4ccccc4)cc3)CC2)cc1-c1cccc2ccccc12 [Compound 33]	1000 to 10000	5	10 to 100	10 to 100
COCCN(C)C(=O)c1cn(Cc2cncn2CC2CCN(Cc3ccc(Oc4ccccc4)cc3)CC2)cc1-c1cccc2ccccc12 [Compound 34, 3-[N-(2-Methoxyethyl)-N-methyl]carbamoyl-4-(naphthalen-1-yl)-1-{1-[1-(4-phenoxybenzyl)piperidin-4-ylmethyl]-1H-imidazol-5-ylmethyl}-1H-pyrrole]	1000 to 10000	11	10 to 100	10 to 100
